Data on 1 molecule can be found in publication PMC5730592, “Parallelogram based approach for in vivo dose estimation of genotoxic metabolites in humans with relevance to reduction of animal experiments” (Scientific Reports, 2017).

Several values for one entry are separate records, joined by “and”; a condition that tells them apart may be missing. Equal values may be shown once. Read-outs that look alike come from different tables or passages of the source.

For data set [1] the following is noted: cited from earlier work.
On the set-up of data set [2]: method as in PMID 15668111. The following applies: 37 °C; cited from earlier work.
For data set [3] the following is noted: male rat, different AA exposure studies, various methods; cited from earlier work.
Details of data set [4]: method as in Doerge at al. (2005). The settings on record: male F344 rats, single dietary exposure ca. 100 µg AA/kg bw, n = 7, direct measurements; ref Doerge at al. (2005); cited from earlier work.
The nature of data set [5]: In vivo dose (AUC) in rat calculated from measured Hb adduct levels after AA exposure. The settings on record: from Hb adduct levels. The method, then: The in vivo dose or AUC of a compound in blood is the concentration integrated over time (Eq. 2).2 AUC=∫tC(t)dt A method to infer the AUC of an electrophilic compound or metabolite from measured Hb adduct levels (A) has been developed and established by our research group for quantitative monitoring of exposure in humans or for application in animal studies[1],[3]. When Hb adduct formation is measured a short time after a single acute exposure, or after incubation in vitro, AUC can be calculated using Eq. 3. This equation is based on A, and the second-order reaction rate constant (kNu) for the formation of an adduct to a nucleophilic site in Hb from the concerned electrophile.3 AUC=A/kNu
For calculating the daily AUC from a longer duration of exposure, the daily adduct level increments (a) have to be calculated considering the accumulation and elimination of adducts due to lifetime of the erythrocytes (t er). […] From continuous or subchronic exposure when the exposure time (t) is shorter than t er, the accumulated adduct level is calculated [a × t × (1 − t/2t er)][49].
For in vivo data on AUC of AA and of GA from AA exposure in rats, a study on short-term oral exposure of rats was used[24]. […] Blood samples were collected and AA- and GA-adducts to N-terminal valine in Hb were measured as described above, and recalculated to the daily increment of the adduct level. […]

Data set [6] in a line: Parallelogram approach estimation of AUC-GA in human. The following applies: predicted ratio × measured human AUC-AA. From the text:
(§1) The parallelogram approach representing inter-species comparison of in vivo dose and the use of in vitro data is shown in Fig. 1 for the metabolic transformation of R to RX, which is referred to as the metabolism of AA to GA in the present study. This figure can be formulated to Eq. 1 as described in Methods (cf. Eq. 5), where the superscripts H and R represent the corresponding AUC or EE in human and rat, respectively.1 AUC^H−RX/AUC^R−RX=EE^H−R→RX/EE^H−RXel/EE^R−R→RX/EE^R−RXel×AUC^H−R/AUC^R−R
(§2) The in vitro data on enzyme kinetics from human and rat (Table 1), and the in vivo data on AUC of AA and of GA in rat (Table 2) were used to calculate the predictive value of AUC-GA per AUC-AA in human, according to the parallelogram approach (cf. Methods, Eq. 5). This was calculated to 0.087 (Table 3). […] It was observed that the AUC-GA in human and rat predicted by the parallelogram approach and from measured Hb adduct levels, respectively, differed with about a factor of 3 (cf. Tables 2 and 3). This difference is within the variability range of AUC-GA for respective species calculated from different in vivo studies. […]

A short description of data set [7]: Parallelogram approach estimation of AUC-GA in rat.
Description: as §1, §2

The conditions of data set [8]: cited from earlier work. This is another data set of the same source.

Regarding `NC(=O)C1CO1` (racemic) [GA, rac-Glycidamide], the AUC-GA in data set [1] (Rat (male F344), 500 and 2000 μg AA/kg bw and day in drinking water, one week, n = 6, from Hb adducts) is 18 nM·h/μg AA per kg bw and 18 ± 1 nM·h/μg AA per kg bw; in data set [1] (male F344 rats, single dose 0.1 mg AA/kg bw, Hb adducts, ref Tareke et al. (2006)) it was 14 nM·h/ μg AA per kg bw; in data set [4], 19 nM·h/ μg AA per kg bw; in data set [8] (Human, ca. 11 μg AA/kg bw and day through food, 4 days, n = 9, from Hb adducts), 49 nM·h/μg AA per kg bw and 49 ± 17 nM·h/μg AA per kg bw; in data set [8] (Humans, ca. 2.5 μg AA/kg bw daily through food, 28 days, n = 9, ref Vikström et al. (2011)), 21 nM·h/ μg AA per kg bw; in data set [8] (Humans, single dose in drinking water 500, 1000 and 3000 µg AA/kg bw, n = 6 males, ref Fennell et al. (2005)), 60 nM·h/ μg AA per kg bw. Moreover, the “AUC of GA” value in data set [1] (SD rat (male), subchronic intraperitoneal AA, Hb adducts on cysteine site) is given as 16.3 nM·h per μg AA per kg bw. The “half-life of hydrolysis of GA in an aqueous solution” value in data set [2] was 43 h. Besides, the “rate of hydrolysis of GA in an aqueous solution” value in data set [2] was 0.016 h⁻¹. For the same molecule, the “range of AUC-GA” value in data set [3] was 13–52 nM·h per μg AA per kg bw. For the same molecule, the “ratio between species (rat-to-human) of AUC-GA per AUC-AA” value in data set [5] is listed as 2.3; in data set [7] (from the parallelogram approach), 16. The “AUC-GA estimated from the parallelogram approach” value in data set [6] is 18 nM·h/μg AA per kg bw and 18^a nM·h/μg AA per kg bw; in data set [7] (Rat, predicted ratio × measured rat AUC-AA) it was 48 nM·h/μg AA per kg bw. Moreover, the “daily Hb adduct level increment per exposure dose” value in data set [8] (Human, AA-rich food 4 days, 11 μg AA/kg bw, adducts to N-terminal valine) was 1.02 pmol/g globin per μg AA/kg bw and day.
